These results are taken from BindingDB's records for doi:10.1038/sj.bjp.0705856 (Schering-Plough Research Institute, 2004).

Where “and” joins values, the source holds several entries; their conditions need not be identical. Identical values can stand only once.

The target in this experiment is T1, Sphingosine 1-phosphate receptor 4 (Homo sapiens, UniProt O95977).
T1 sequence (O95977 whole entry): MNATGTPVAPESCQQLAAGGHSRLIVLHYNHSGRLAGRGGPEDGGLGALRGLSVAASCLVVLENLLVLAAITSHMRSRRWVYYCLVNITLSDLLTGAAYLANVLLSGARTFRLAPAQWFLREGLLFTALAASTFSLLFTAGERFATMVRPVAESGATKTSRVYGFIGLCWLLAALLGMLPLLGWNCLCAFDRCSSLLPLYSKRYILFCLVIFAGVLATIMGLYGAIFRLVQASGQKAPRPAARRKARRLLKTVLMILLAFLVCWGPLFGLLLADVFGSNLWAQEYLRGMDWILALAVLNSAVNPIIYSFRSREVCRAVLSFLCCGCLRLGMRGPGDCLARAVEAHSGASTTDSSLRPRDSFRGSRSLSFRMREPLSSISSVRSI

As to `CCCCCCCCCCCCC/C=C\C(O)C(N)COP(=O)(O)O` (stereo unspecified) [{[(4Z)-2-amino-3-hydroxyoctadec-4-en-1-yl]oxy}phosphonic acid], the Ki is 21 nM and 64 nM and 27 nM and 32 nM and 28 nM and 33 nM.
